One experiment has as its system HCT116 cells. Put plainly: Growth inhibitory activity on HCT116 cell (CellTiter-Glo). Type of experiment: cell-based. The following applies: table head: 10 μM (text b2498: 1 μM), 3 days incubation; for inhibition at 10 µM: Homo sapiens, HCT-116, 72 h, read-out: HCT116 cell proliferation inhibitory rate (%) at 10 μM. On the procedure: The growth inhibitory activity of the compound on HCT116 cell was evaluated by the following method.
HCT116 cells were seeded in a 384 well blackplate at 900 cells/30 μL/well, and maintained in an RPMI medium (Wako)) containing an assay medium (2% fetal bovine serum, 50 Unit/mL penicillin, 50 μg/mL streptomycin (Invitrogen). The next day, a test compound dissolved in dimethyl sulfoxide (DMSO) was diluted with the assay medium, and the obtained compound solution was added by 10 μL to each well of a plate containing HCT116 cells and incubated at 37° C., 5% CO2 (test compound addition group).
A similar reaction was performed without adding a test compound (test compound non-addition group).
Furthermore, a similar reaction was performed under the conditions without adding HCT116 cell and a test compound (control group).
After 3 days, 20 μL of a CellTiter-Glo reagent (Promega KK) was added to the well, and the mixture was stirred for 10 min. Thereafter, the luminescence value of each well was measured by the EnVision™ multilabel counter (Perkin Elmer Inc.).
The HCT116 cell proliferation inhibitory rate (%) of the test compound was determined by the following calculation formula. (1−(luminescence of test compound addition group−luminescence of control group)÷(luminescence of test compound nonaddition group−luminescence of control group))×100
On the technique in general: In ATP-based viability assays light output follows the ATP content of the culture.

The target of another experiment is T1, human ACC1 (Homo sapiens, UniProt Q13085).
T1 construct: His tag (from vector pFAST-BacHTc; protein captured on Ni-NTA) (N); made in house; host or cells: SF-9 insect cells, recombinant baculovirus BAC-ACC1
Put plainly: Measurement of ACC1 inhibitory activity (Malonyl-CoA production, RapidFire-mass spectrometry). In kind it is biochemical. The note with it: 10 μM of the test compound, recombinant human ACC1; for inhibition at 10 µM: read-out: ACC1 inhibitory rate (%) at 10 μM. The protocol: (1) Cloning of Human ACC1 Gene and Preparation of Recombinant Baculovirus
Human ACC1 gene was cloned by PCR using a human liver cDNA library (Clontech) as a template and Primer 1 and Primer 2 shown below. Primer 1 and Primer 2 were prepared by adding SalI, NotI restriction enzyme recognition sequences based on the information of the base sequence of human ACC1 gene (Genbank Accession U19822).
PCR was performed using Pyrobest DNA polymerase (TAKARA BIO INC.). The obtained PCR product was cloned to pT7 Blue vector (Novagen) and after confirmation of the base sequence, digested with restriction enzymes SalI and XbaI. The obtained DNA fragment was inserted into pFAST-BacHTc (Invitrogen) digested with restriction enzymes SalI and XbaI to give expression plasmid ACC1/pFAST-BacHTc.
Using the expression plasmid ACC1/pFAST-BacHTc and BAC-TO-BAC Baculovirus Expression System (Invitrogen), virus stock BAC-ACC1 of recombinant Baculovirus was prepared.
(2) Preparation of ACC1 Protein
SF-9 cells (Invitrogen) were inoculated to a medium (10 L) for insect cells (Sf-900IISFM medium (Invitrogen) containing 5% fetal bovine serum (Trace), 50 mg/L Gentamicin (Wako Pure Chemical Industries, Ltd.), 0.1% Pluronic F-68 (Invitrogen)) at 1.0×10^6 cells/mL, and cultured with shaking in Wave Bioreactor (GE Healthcare) at 27° C., 20 rpm, rocking angle 10°, oxygen concentration 30%.
On day 2 of the culture, recombinant Baculovirus BAC-ACC1 was added, and the cells were cultured for 3 days. The culture medium was centrifuged at 4000×g for 10 min to give virus-infected cells. The cells were washed with phosphate buffered saline (Invitrogen) and centrifuged under the same conditions. The obtained cells were cryopreserved at −80° C.
The cryopreserved cells were thawed in ice and suspended in 800 mL of 25 mM HEPES buffer (pH 7.5) containing 10% Glycerol, 0.3 M NaCl, 1 mM EDTA, 25 mM Sodium β-Glycerophosphate and 1 mM Sodium Orthovanadate, and supplemented with Complete Protease Inhibitor (Roche). The obtained suspension was homogenized two times in a polytron homogenizer (Kinematica) at 20,000 rpm for 20 sec. The obtained cell disruption solution was clarified by centrifugation at 186,000×g for 60 min and the supernatant was passed through Ni-NTA Superflow Cartridges (5 mL) (QUIAGEN). Furthermore, it was washed with 25 mM HEPES buffer (pH 7.5) containing 20 mM Imidazole, 0.3 M NaCl, and eluted with 25 mM HEPES buffer (pH 7.5) containing 250 mM Imidazol, 0.3 M NaCl. The eluate was concentrated by Amicon Ultra-15 (Nihon Millipore K.K.) having a fraction molecular weight of 50K. The obtained concentrate was subjected to gel filtration with 50 mM HEPES buffer (pH 7.5) containing 10 mM MgCl2, 2 mM dithiothreitol, 10 mM tripotassium citrate, 0.3 M NaCl by using HiLoad 26/60 Superdex200 prep grade gel filtration column (GE Healthcare) to give ACC1. The obtained ACC1 was cryopreserved at −80° C.
(3) Measurement of ACC1 Inhibitory Activity
ACC1 obtained in the above-mentioned (2) was diluted with an enzyme reaction buffer (50 mM HEPES (pH 7.5), 10 mM MgCl2, 10 mM Tripottasium Citrate, 2 mM Dithiothreitol, 0.001% Fatty acid free BSA) to a concentration of 0.2 μg/ml, and the mixture was added to each well of a 384 well assay plate by 10 μl. A test compound dissolved in dimethyl sulfoxide (DMSO) was diluted with an enzyme reaction buffer and the resulting solution (5 μl) was added to each well. The mixture was incubated at room temperature for 60 min. Then, a substrate solution (50 mM KHCO3, 200 μM ATP, 200 μM Acetyl-CoA, 5 μl) was added to each well, and the mixture was reacted at room temperature for 30 min. The reaction was quenched by adding a reaction quenching liquid (1.3% formic acid, 0.2 μM Malonyl-^13C3-CoA) by 60 μL each to the obtained reaction mixtures (test compound addition group).
In addition, a reaction was performed in the same manner as above and without adding the test compound (test compound non-addition group). […]

Here are results for 17 compounds from patent US10301292B2, “Bicyclic compound” (Takeda Pharmaceutical Company Limited, priority 2014, dated 2019).

Regarding `CC(=O)NC(C)c1ccc2cc(-c3ccc(Oc4cccc(OCC5CC5)c4)nc3)oc2c1` (stereo not shown) [Example 67, N-(1-(2-(6-(3-(cyclopropylmethoxy)phenoxy)pyridin-3-yl)-1-benzofuran-6-yl)ethyl)acetamide], the inhibition at 10 µM with HCT116 cells was found to be 38%; on human ACC1, 97%.

Regarding `CC(=O)NC(C)c1ccc2cc(-c3ccc(Oc4cccc(OC[C@@H]5CC5(F)F)c4)nc3)oc2c1` (stereo partly drawn) [Example 68, N-(1-(2-(6-(3-(((1S)-2,2-difluorocyclopropyl)methoxy)phenoxy)pyridin-3-yl)-1-benzofuran-6-yl)ethyl)acetamide], the inhibition at 10 µM in the experiment on HCT116 cells is 39%; at human ACC1, 100%.

As for `CC(=O)NC(C)c1ccc2oc(-c3ccc(Oc4cccc(OCC5CC5)c4)nc3)nc2c1` (stereo not shown) [Example 71, N-(1-(2-(6-(3-(cyclopropylmethoxy)phenoxy)pyridin-3-yl)-1,3-benzoxazol-5-yl)ethyl)acetamide], the inhibition at 10 µM is 41% in the experiment with HCT116 cells and 95% at human ACC1.

Take `CC(=O)NC(C)c1ccc2sc(-c3ccc(Oc4cccc(OCC5CC5)c4)cc3)cc2c1` (stereo not shown) [Example 73, N-(1-(2-(4-(3-(cyclopropylmethoxy)phenoxy)phenyl)-1-benzothiophen-5-yl)ethyl)acetamide]: the figures for the inhibition at 10 µM in the experiment with HCT116 cells and at human ACC1 were 28% and 90%, respectively.

For `CC(=O)NC(C)c1ccc2sc(-c3ccc(Oc4cccc(OCC5CC5)c4)nc3)nc2c1` (stereo not shown) [Example 75, N-(1-(2-(6-(3-(cyclopropylmethoxy)phenoxy)pyridin-3-yl)-1,3-benzothiazol-5-yl)ethyl)acetamide], the inhibition at 10 µM with HCT116 cells was 40%; at human ACC1 it was 94%.

Consider `CC(=O)NC(C)c1ccc2nc(-c3ccc(Oc4cccc(OC[C@@H]5CC5(F)F)c4)cn3)oc2c1` (stereo partly drawn) [Example 76, N-(1-(2-(5-(3-(((1S)-2,2-difluorocyclopropyl)methoxy)phenoxy)pyridin-2-yl)-1,3-benzoxazol-6-yl)ethyl)acetamide], for which the inhibition at 10 µM with HCT116 cells was 45%; on human ACC1, 99%.

As for `CC(=O)NC(C)c1ccc2nc(-c3ccc(Oc4cccc(OC[C@@H]5CC5(F)F)c4)nc3)oc2c1` (stereo partly drawn) [Example 80, N-(1-(2-(6-(3-(((1S)-2,2-difluorocyclopropyl)methoxy)phenoxy)pyridin-3-yl)-1,3-benzoxazol-6-yl)ethyl)acetamide], the inhibition at 10 µM was determined as 33% in the experiment on HCT116 cells and 100% at human ACC1.

`CC(=O)NC(C)c1ccc2nc(-c3ccc(Oc4cc(OCC5CC5)ccn4)cc3)oc2c1` (stereo not shown) [Example 82, N-(1-(2-(4-((4-(cyclopropylmethoxy)pyridin-2-yl)oxy)phenyl)-1,3-benzoxazol-6-yl)ethyl)acetamide]: the inhibition at 10 µM worked out at 40% with HCT116 cells and 98% on human ACC1.

Take `CC(=O)NC(C)c1ccc2cc(-c3ccc(Oc4cccc(OCC5CC5)c4)cc3)nn2c1` (stereo not shown) [Example 86, N-(1-(2-(4-(3-(cyclopropylmethoxy)phenoxy)phenyl)pyrazolo[1,5-a]pyridin-6-yl)ethyl)acetamide]: the values for the inhibition at 10 µM with HCT116 cells and on human ACC1 were 34% and 95%, respectively.

As to `CC(=O)NC(C)c1ccc2nc(-c3ccc(Oc4cccc(OCC5CC5)c4)cc3)oc2c1F` (stereo not shown) [Example 90, N-(1-(2-(4-(3-(cyclopropylmethoxy)phenoxy)phenyl)-7-fluoro-1,3-benzoxazol-6-yl)ethyl)acetamide], the inhibition at 10 µM in the experiment with HCT116 cells was 22%; on human ACC1, 101%.

In the case of `CC(=O)NC(C)C1CCc2nc(-c3ccc(Oc4cccc(OCC5CC5)c4)cc3)oc2C1` (stereo not shown) [Example 95, N-(1-(2-(4-(3-(cyclopropylmethoxy)phenoxy)phenyl)-4,5,6,7-tetrahydro-1,3-benzoxazol-6-yl)ethyl)acetamide], the inhibition at 10 µM with HCT116 cells was 11%; at human ACC1 it was 97%.

Take `CC(=O)NC(C)C1CCc2nc(-c3ccc(Oc4cccc(OCC5CC5)c4)cc3)oc2C1` (stereo not shown) [Example 95b, N-(1-(2-(4-(3-(cyclopropylmethoxy)phenoxy)phenyl)-4,5,6,7-tetrahydro-1,3-benzoxazol-6-yl)ethyl)acetamide]: the “HCT116 cell proliferation inhibitory rate (%) at 10 μM” value in the experiment with HCT116 cells is 20%. For the same compound, the “ACC1 inhibitory rate (%) at 10 μM” value at human ACC1 (10 µM) is reported as 96%.

As to `CC(=O)NC(C)c1ccc2nc(-c3ccc(Oc4cccc(OCC5CC5)c4)nn3)oc2c1` (stereo not shown) [Example 96, N-(1-(2-(6-(3-(cyclopropylmethoxy)phenoxy)pyridazin-3-yl)-1,3-benzoxazol-6-yl)ethyl)acetamide], the values for the inhibition at 10 µM in the experiment with HCT116 cells and at human ACC1 were 23% and 100%, respectively.

Turning to `CC(=O)NC(C)c1ccc2nc(-c3cnc(Oc4cccc(OCC5CC5)c4)cc3C)oc2c1` (stereo not shown) [Example 97, N-(1-(2-(6-(3-(cyclopropylmethoxy)phenoxy)-4-methylpyridin-3-yl)-1,3-benzoxazol-6-yl)ethyl)acetamide], the inhibition at 10 µM with HCT116 cells was found to be 22%; on human ACC1 it was 92%.

As to `C[C@H](NC(N)=O)c1ccc2nc(-c3ccc(Oc4cccc(OCC5CC5)c4)nc3)oc2c1` [Example 98b, 1-((1S)-1-(2-(6-(3-(cyclopropylmethoxy)phenoxy)pyridin-3-yl)-1,3-benzoxazol-6-yl)ethyl)urea], the figures for the inhibition at 10 µM with HCT116 cells and on human ACC1 were 47% and 98%, respectively.

Regarding `COC(=O)NC(C)c1ccc2nc(-c3ccc(Oc4cccc(OCC5CC5)c4)nc3)oc2c1` (stereo not shown) [Example 99, methyl (1-(2-(6-(3-(cyclopropylmethoxy)phenoxy)pyridin-3-yl)-1,3-benzoxazol-6-yl)ethyl)carbamate], the inhibition at 10 µM in the experiment on HCT116 cells stood at 26%; on human ACC1, 98%.

With `CNC(=O)NC(C)c1ccc2nc(-c3ccc(Oc4cccc(OCC5CC5)c4)nc3)oc2c1` (stereo not shown) [Example 100, 1-(1-(2-(6-(3-(cyclopropylmethoxy)phenoxy)pyridin-3-yl)-1,3-benzoxazol-6-yl)ethyl)-3-methylurea], the inhibition at 10 µM is 28% in the experiment on HCT116 cells and 94% on human ACC1.
